From paper PMC4579270, “Identification and Characterization of an Irreversible Inhibitor of CDK2” (Chemistry & Biology, 2015)
Where two headings read alike, the source gives them in different places.

Legend:
Test in all cases: Dundee kinase screen re-test (standard format and 4 hour pre-incubation)
Assay type in all cases: biochemical
Lck = Lck (Homo sapiens, UniProt P06239)
Experimental: (§1) Prior to determining its cellular activity, we carried out a screen to assess its selectivity against a panel of 131 protein kinases under conditions that would not distinguish between a reversible or irreversible mode of action. […] These 13 kinases and 29 additional kinases, selected for their known sensitivity to other inhibitors within the purine series, were then tested in a modified screening format in which the assay was repeated following a 4-hr pre-incubation (Table S3B). […] However, conformational flexibility around the active site may promote such an interaction with a residue from another part of the structure ([Martin et al., 2012]).
(§2) Table S3, Related to Figure 4. NCL-0006300 protein kinase selectivity. (A) NU6300 was tested at a single concentration of 1µM against 131 protein kinases present in a Dundee protein kinase screen (Bain et al., 2007). Values given are % activity remaining and are the average of duplicate measurements: 0-25% (red), 26-50% (yellow), 51-80% (black) and above 81% (green). The kinase domain sequences (as defined by UniProt) of […]
(§3) have a lysine residue at a position close to CDK2 Lys88 or Lys89. However, in the structure of tyrosine-protein kinase BTK (PDB ID: 3GEN) the residue equivalent to CDK2 Asp86 is Cys481 and therefore there is the potential for a covalent adduct to be formed through this side chain. Ephrin type-B receptor 3 (UniProt entry P54753) also encodes a cysteine residue (Cys717) that by sequence alignment would be predicted to be close to the CDK2 lysine pair. (B) Selected kinases were re-tested in the Dundee kinase screen against NU6300 at a single concentration of 0.5 µM both in the standard assay format and following a 4 hour pre-incubation in the presence of NU6300. Kinases which have very low activity after the 4 hour incubation so that results might not be wholly reliable are boxed in salmon. Kinases where the activity after a 4 hour pre-incubation is < 50% that in the standard assay format are highlighted in red.

CHK2 = CHK2 (Homo sapiens, UniProt O96017); conditions: CHK2, 0.5µM
Chain of CHK2 (O96017 whole entry): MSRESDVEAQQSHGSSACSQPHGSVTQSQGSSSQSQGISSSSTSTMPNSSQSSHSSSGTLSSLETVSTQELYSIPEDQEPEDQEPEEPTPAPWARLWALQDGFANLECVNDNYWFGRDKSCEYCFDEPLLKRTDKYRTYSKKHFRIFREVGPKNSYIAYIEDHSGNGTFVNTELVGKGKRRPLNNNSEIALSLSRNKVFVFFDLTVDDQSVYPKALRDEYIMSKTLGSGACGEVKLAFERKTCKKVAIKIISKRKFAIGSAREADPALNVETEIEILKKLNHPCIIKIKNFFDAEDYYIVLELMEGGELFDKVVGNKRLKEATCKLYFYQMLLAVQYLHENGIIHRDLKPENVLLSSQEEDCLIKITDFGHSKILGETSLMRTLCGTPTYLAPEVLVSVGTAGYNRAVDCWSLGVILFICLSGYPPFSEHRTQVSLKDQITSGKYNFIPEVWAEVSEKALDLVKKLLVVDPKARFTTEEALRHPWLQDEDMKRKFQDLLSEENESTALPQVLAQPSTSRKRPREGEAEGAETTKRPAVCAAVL
Experimental: as §1, §2, §3

VEG-FR1 = VEG-FR1 (Homo sapiens, UniProt P17948); conditions: VEG-FR1, 0.5µM
Chain of VEG-FR1 (P17948 27-1338): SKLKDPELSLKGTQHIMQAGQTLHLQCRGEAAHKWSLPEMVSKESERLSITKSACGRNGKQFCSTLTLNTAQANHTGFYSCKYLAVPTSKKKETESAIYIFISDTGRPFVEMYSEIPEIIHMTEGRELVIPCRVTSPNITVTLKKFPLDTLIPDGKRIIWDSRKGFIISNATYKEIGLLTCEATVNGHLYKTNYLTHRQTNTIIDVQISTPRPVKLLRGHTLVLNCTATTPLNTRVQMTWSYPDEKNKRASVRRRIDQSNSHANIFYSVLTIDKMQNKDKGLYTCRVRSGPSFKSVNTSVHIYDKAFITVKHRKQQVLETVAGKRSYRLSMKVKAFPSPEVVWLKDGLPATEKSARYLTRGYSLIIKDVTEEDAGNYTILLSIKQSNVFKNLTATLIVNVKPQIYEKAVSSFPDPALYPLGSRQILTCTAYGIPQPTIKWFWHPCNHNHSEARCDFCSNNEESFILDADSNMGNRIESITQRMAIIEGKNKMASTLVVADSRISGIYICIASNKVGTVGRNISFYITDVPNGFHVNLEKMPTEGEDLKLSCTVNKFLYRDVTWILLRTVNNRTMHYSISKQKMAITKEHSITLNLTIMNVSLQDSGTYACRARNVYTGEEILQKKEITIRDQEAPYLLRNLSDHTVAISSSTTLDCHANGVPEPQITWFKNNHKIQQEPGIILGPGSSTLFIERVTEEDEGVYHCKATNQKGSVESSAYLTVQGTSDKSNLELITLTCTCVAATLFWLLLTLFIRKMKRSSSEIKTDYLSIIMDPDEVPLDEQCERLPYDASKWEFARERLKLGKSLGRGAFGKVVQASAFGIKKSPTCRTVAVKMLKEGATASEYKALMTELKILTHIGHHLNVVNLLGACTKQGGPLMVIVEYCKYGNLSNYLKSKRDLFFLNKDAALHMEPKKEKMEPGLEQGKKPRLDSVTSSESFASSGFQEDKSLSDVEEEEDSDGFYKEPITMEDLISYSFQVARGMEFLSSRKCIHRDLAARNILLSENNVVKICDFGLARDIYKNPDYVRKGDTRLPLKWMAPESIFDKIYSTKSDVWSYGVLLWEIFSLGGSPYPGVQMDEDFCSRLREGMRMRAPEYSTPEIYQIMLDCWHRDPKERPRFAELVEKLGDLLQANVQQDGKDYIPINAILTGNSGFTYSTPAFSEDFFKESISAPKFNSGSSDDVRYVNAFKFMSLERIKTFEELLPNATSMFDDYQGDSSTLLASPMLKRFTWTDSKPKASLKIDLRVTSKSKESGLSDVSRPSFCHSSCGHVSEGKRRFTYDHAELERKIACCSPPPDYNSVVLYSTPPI
Experimental: as §1, §2, §3

Aurora B = Aurora B (Homo sapiens, UniProt Q96GD4)
Chain of Aurora B (Q96GD4 whole entry): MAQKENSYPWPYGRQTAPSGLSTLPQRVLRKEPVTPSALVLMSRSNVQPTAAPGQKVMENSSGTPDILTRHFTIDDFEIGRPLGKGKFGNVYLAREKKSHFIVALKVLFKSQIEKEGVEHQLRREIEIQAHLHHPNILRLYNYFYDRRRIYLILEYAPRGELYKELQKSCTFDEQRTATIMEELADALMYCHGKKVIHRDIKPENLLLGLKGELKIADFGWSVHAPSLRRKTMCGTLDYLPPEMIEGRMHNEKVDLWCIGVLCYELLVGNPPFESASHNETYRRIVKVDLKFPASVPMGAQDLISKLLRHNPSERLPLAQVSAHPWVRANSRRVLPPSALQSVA
Experimental: as §1, §2, §3

MARK1 = MARK1 (Homo sapiens, UniProt Q9P0L2); conditions: MARK1, 0.5µM
Chain of MARK1 (Q9P0L2 whole entry): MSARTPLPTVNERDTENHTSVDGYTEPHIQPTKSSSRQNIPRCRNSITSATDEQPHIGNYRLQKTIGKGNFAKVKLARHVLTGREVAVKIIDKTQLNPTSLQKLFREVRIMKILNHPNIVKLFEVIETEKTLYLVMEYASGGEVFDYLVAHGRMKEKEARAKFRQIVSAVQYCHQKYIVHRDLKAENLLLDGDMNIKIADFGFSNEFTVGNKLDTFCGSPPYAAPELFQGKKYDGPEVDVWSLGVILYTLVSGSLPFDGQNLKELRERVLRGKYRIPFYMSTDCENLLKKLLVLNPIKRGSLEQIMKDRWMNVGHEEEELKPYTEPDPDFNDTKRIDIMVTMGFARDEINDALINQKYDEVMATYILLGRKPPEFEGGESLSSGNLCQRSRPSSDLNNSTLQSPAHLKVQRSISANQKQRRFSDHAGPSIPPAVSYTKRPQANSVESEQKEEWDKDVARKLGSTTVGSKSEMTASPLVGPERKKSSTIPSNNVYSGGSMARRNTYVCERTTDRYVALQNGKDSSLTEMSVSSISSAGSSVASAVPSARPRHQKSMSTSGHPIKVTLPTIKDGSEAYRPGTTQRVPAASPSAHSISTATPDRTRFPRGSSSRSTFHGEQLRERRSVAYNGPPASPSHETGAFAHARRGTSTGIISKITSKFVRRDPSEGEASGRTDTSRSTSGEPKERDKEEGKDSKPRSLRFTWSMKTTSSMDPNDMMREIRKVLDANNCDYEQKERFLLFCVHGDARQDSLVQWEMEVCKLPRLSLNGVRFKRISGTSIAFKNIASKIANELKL
Experimental: as §1, §2, §3

IRAK1 = IRAK1 (Homo sapiens, UniProt P51617); conditions: IRAK1, 0.5µM
Chain of IRAK1 (P51617 whole entry): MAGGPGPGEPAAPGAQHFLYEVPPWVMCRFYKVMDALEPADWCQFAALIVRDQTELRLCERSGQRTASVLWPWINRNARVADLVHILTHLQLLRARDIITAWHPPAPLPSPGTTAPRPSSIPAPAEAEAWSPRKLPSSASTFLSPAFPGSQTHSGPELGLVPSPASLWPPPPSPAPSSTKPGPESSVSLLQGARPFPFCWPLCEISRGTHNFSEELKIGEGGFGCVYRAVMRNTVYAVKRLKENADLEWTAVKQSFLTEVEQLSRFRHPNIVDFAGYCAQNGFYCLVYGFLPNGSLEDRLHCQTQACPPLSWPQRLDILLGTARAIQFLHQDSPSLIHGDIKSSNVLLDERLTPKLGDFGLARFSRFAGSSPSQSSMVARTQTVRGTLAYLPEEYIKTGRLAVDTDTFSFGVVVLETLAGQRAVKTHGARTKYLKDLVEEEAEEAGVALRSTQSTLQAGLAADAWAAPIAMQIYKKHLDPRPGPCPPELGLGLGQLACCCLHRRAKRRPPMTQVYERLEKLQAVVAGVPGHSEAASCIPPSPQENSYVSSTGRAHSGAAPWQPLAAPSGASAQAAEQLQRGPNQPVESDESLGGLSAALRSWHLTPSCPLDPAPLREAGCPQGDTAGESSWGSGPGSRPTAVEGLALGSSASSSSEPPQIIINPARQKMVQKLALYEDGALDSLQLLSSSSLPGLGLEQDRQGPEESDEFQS
Experimental: as §1, §2, §3

NUAK1 = target: T1, NUAK1 (Homo sapiens, UniProt O60285); conditions: NUAK1, 0.5µM
T1 sequence (O60285 1-661): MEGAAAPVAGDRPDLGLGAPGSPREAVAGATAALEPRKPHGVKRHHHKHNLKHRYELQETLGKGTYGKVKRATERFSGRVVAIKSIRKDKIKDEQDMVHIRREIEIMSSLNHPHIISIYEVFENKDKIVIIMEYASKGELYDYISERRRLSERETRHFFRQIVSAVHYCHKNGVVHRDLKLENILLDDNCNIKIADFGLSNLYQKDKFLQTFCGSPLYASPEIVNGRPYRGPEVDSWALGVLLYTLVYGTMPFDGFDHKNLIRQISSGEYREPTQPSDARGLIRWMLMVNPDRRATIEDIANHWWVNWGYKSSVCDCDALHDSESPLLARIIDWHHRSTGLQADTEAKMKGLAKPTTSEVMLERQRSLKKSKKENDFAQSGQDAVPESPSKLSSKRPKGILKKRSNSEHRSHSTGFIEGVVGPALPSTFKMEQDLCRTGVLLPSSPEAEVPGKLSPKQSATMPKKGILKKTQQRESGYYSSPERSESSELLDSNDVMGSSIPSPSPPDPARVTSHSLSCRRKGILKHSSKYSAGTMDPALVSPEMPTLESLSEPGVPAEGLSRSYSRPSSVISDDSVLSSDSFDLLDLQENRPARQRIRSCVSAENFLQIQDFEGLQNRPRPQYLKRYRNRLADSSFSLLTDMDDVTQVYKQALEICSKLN
Experimental: as §1, §2, §3

[1] = 4hr RT preincubation, read-out: %Remaining activity at 0.5µM NU6300 - 4hr RT preincubation
[2] = usual format, read-out: %Remaining activity at 0.5µM NU6300 - Usual assay format

Chain of Lck (P06239 whole entry): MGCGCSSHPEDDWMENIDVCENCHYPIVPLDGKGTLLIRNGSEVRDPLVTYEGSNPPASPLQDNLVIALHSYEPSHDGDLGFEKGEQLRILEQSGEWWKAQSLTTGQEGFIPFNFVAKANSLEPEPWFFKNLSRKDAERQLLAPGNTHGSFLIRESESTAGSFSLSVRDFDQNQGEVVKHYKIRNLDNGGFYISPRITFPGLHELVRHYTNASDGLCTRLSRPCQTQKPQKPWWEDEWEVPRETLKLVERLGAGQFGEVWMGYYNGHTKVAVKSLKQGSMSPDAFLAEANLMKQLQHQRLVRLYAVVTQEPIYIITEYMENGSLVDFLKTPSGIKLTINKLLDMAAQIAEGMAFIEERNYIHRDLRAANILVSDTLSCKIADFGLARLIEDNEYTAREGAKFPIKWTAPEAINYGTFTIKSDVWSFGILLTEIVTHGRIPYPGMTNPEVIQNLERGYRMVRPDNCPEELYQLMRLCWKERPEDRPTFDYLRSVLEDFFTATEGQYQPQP

`C=CS(=O)(=O)c1ccc(Nc2nc(OCC3CCCCC3)c3nc[nH]c3n2)cc1` [NU6300, 6-(cyclohexylmethoxy)-N-(4-(vinylsulfonyl)phenyl)-9H-purin-2-amine] was tested, and the remaining activity at 0.5 µM (Lck; [1]) was 60%, the remaining activity at 0.5 µM (Lck; [2]) was 67% and the remaining activity at 0.5 µM (CHK2; [1]) was 120%. The remaining activity at 0.5 µM (CHK2; [2]) was 55%, the remaining activity at 0.5 µM (VEG-FR1; [1]) was 51% and the remaining activity at 0.5 µM (VEG-FR1; [2]) was 43%. For the same compound, the remaining activity at 0.5 µM (Aurora B; [1]) was 87%, the remaining activity at 0.5 µM (Aurora B; [2]) was 43% and the remaining activity at 0.5 µM (MARK1; [1]) was 38%. The remaining activity at 0.5 µM (MARK1; [2]) was 37%, the remaining activity at 0.5 µM (IRAK1; [1]) was 38% and the remaining activity at 0.5 µM (IRAK1; [2]) was 64%. For the same compound, the remaining activity at 0.5 µM (NUAK1; [1]) was 18% and the remaining activity at 0.5 µM (NUAK1; [2]) was 12%.
